# Laboratory results reported in patent US9611502B2, “Method for simultaneously measuring activity of various enzymes by using multi-wavelength absorption single channel” (Chongqing Medical University, priority 2012, dated 2017).
# Key:
# [1] = biological target: T1, calf intestinal alkaline phosphatase (CIAP) (Bos taurus, UniProt P19111)
# [2] = biological target: T1, calf intestinal alkaline phosphatase (CIAP); design: purchased Sigma P0114; conditions: Blake et al 1982 method; cited from earlier work
# [3] = biological target: T2, lactic acid dehydrogenase (LDH) (Oryctolagus cuniculus, UniProt P13491); test: LDH kinetics and competitive inhibition by 4-nitroaniline (simultaneous GGT/LDH assay); type: biochemical, rabbit
# T2 construct: purchased Shanghai Shangon NB0642
# [4] = Specific activity of penicillin G-labeled β-D-galactosidase after labeling; type: biochemical; conditions: 50 mmol/L Tris-HCl pH 7.5
# Protocol: b) mixing 50 ul solution of the activated penicillin G with 0.50 ml of 0.44 mg β-D-galactosidase dissolved in the sodium phosphate buffer at pH 7.4, keeping the mixture at 4° C. for reaction for 120 min; the resulting mixture of the labeled β-D-galactosidase is passed through Sephadex G25 column (15 cm height and 10 mm inner diameter with a packed volume of 10 ml, equilibrated with 50 mmol/L Tris-HCl at pH 7.5) and the column is eluted with the same Tris-HCl buffer to monitor the absorbance at 280 nm; the first peak of the elution is the labeled β-D-galactosidase, with a total of 0.22 mg protein in 2.0 ml elution solution;
# c) determining the specific activity after labeling: in 50 mmol/L Tris-HCl at pH 7.5, the specific activity of the labeled β-D-galactosidase is about 30 μmol·(L·min·mg)^−1 on 4-nitrophenyl-β-D-galactoside, indicating the reservation of nearly 100% activity; meanwhile, the specific activity on 4-nitro-1-napthyl-β-D-galactoside in the same buffer, its specific activity is about 100 (L·min·mg)^−1, but just about 70% of that before modification;
# [5] = system: γ-glutamyltransferase (GGT); conditions: preset for data processing; cited from earlier work
# T1 sequence (P19111 20-506): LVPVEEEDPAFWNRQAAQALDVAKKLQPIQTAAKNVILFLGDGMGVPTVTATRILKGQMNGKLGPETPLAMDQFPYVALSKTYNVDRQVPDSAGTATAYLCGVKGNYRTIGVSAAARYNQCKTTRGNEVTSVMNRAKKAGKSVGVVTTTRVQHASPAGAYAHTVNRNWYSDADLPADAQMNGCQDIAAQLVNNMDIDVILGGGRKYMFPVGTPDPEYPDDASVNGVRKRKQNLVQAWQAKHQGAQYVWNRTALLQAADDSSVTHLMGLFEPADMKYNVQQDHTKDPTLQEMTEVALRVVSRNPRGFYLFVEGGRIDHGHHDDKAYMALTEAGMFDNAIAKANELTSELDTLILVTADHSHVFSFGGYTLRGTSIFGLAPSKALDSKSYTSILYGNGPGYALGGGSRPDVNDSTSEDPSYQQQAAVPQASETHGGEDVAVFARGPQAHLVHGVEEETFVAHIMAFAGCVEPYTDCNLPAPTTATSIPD
compound,measurement,setting,value
"O=[N+]([O-])c1ccc(OP(=O)(O)O)c2ccccc12 [4NNPP, 4-nitronaphthylphosphate]",specific activity of CIAP relative to that on 4-nitrophenylphosphate,[1],about 40%
same,Michaelis constant of CIAP,[1]; 4NNPP as chromogenic substrate,about 10 μmol/L
phenolphthalein monophosphate,specific activity of CIAP relative to that on p-nitrophenylphosphate,[2],about 7%
"NC(=O)C1=CN([C@@H]2O[C@H](COP(=O)(O)OP(=O)(O)OC[C@H]3O[C@@H](n4cnc5c(N)ncnc54)[C@H](O)[C@@H]3O)[C@@H](O)[C@H]2O)C=CC1 [NADH, reduced form of nicotine adenine nucleotide]",Michaelis constant of LDH for NADH,"[3]; pyruvate 3.0 mmol/L, pH 7.0",0.040 mmol/L
labeled β-D-galactosidase: β-D-galactosidase (Sigma G4155) modified with activated penicillin G,reservation of activity after labeling (4-nitrophenyl-β-D-galactoside),[4],about 100%
same,specific activity on 4-nitro-1-napthyl-β-D-galactoside,[4],about 100 (L·min·mg)^−1
same,specific activity on 4-nitro-1-napthyl-β-D-galactoside relative to that before modification,[4],about 70%
same,specific activity on 4-nitrophenyl-β-D-galactoside,[4],about 30 μmol·(L·min·mg)^−1
Nc1ccc([N+](=O)[O-])cc1 [4-nitroaniline],Ki,[3],24 µM
N[C@@H](CCC(=O)Nc1ccc([N+](=O)[O-])cc1)C(=O)O [γ-glutamyl-(4-nitro)-aniline],Michaelis constant of GGT for substrate (preset),[5],1.00 mmol/L
